Consider 13 compounds from patent publication US9394350B2, “HLA-A2 tumor associated antigen peptides and compositions” (OSE PHARMA INTERNATIONAL SA, priority 2003, dated 2016).

Series [1] deals with HLA-A2.1 positive target cells and wild-type peptide. Description: in vitro primary CTL induction with human PBMC, read-out on peptide-loaded targets. Type of series: cell-based. On the procedure: In the final step of the epitope screening process, peptides with high cross-reactive MHC binding to the HLA-A2 supertype family receptors were tested for immunogenicity. The assay is an in vitro primary CTL induction system where CD8^+ PBMC from normal subjects are stimulated in vitro, initially with peptide-loaded dendritic cells (DCs) (adherent PBMC expanded in GM-CSF and IL-4), followed by two weekly cycles of restimulation with peptide (Keogh, E., et al., J. Immunol. 167:787-796 (2001); Kawashima, I., et al., Hum. Immunol. 59:1-14 (1998)). Following expansion of naïve precursor cells, CTL activity is determined in the presence of HLA-A2.1 positive target cells and wild-type peptide, using cytotoxicity (^51Cr-release assay) or interferon-gamma (IFN-γ) production (ELISA) as the read-out. Immunogenic peptides that induced CTL were further tested for responses against the naturally processed epitope expressed on tumor cell lines. Epitopes that induced tumor-reactive CTL were considered as vaccine candidates.

Series [2] in a line: Solubility of individual peptides.
In series [3] the test system is purified HLA-DR molecules. Conditions: cited from earlier work; for IC50: high or intermediate affinity, most prevalent HLA-DR molecules, read-out: IC50 for HLA-DR binding; for Number of HLA-DR molecules bound: out of 16 DR molecules tested.
The subject of series [4] is HLA-A2.1 transgenic mice. The conditions noted are these: shown by others; cited from earlier work.
Series [5] deals with PBMC obtained from healthy donors and cancer patients. Conditions: primary in vitro induction in healthy donors and recall responses in cancer patients; cited from earlier work.
The test system of series [6] is patients with recurrent or residual cervical carcinoma. The conditions noted are these: cited from earlier work.
Series [7] relates to HLA-A2 supertype alleles. Description: MHC binding of motif-containing peptides to purified HLA-A2 supertype molecules. Also noted: species or system human. The conditions noted are these: all peptides bind prototype HLA-A2.1. From the text:
Assays for determining binding are described in detail, e.g., in PCT publications WO 94/20127 and WO 94/03205, and other publications such Sidney et al., Current Protocols in Immunology 18.3.1 (1998); Sidney, et al., J. Immunol. 154:247 (1995); and Sette, et al., Mol. Immunol. 31:813 (1994). It should be noted that IC50 values can change, often dramatically, if the assay conditions are varied, and depending on the particular reagents used (e.g., HLA preparation, etc.). For example, excessive concentrations of HLA molecules will increase the apparent measured IC50 of a given ligand.
A computer-based motif and algorithm search was performed on the primary amino acid sequences of CEA, MAGE-2/3, HER-2/neu, and p53 to predict peptides most likely to bind the MHC molecules of the five alleles of the HLA-A2 supertype family (Tables 4 and 6) (Sette, A. and J. Sidney, Immunogenetics 50:201-212 (1999)). Motif and algorithm-positive peptides were then synthesized and tested for binding to purified HLA-A2.1, the molecule most frequently expressed in humans as well as other MHC molecules of the HLA-A2 supertype family.

The test system of series [8] is colon cancer and NSCLC patients. The conditions noted are these: out of 12 patients who received the DC vaccine; cited from earlier work.
Where [9] appears, read: Solubility, Acidic conditions (pH 2-4), 0.1% TFA, 0.15-0.1875M acetic acid, 25 mM pH 4 sodium acetate, 2-5 mg/ml.
[10] abbreviates: pH 9.6, Solubility, Basic conditions (pH 9.6-13), 25 mM pH 9.6 arginine, 25 mM pH 9.6 sodium bicarbonate, 0.1M NaOH, 2-5 mg/ml.
[11] abbreviates: Solubility, Acidic conditions (pH 2-4).
The mark [12] stands for this setting: pH 9.6, Solubility, Basic conditions (pH 9.6-13).

Read-outs that look alike come from different tables or passages of the source.

The term solubility denotes how much of the substance goes into solution per volume. Read a low solubility as a poorly soluble substance. For the compound `CC[C@H](C)[C@H](N)C(=O)N[C@@H](CCSC)C(=O)N[C@H](C(=O)NCC(=O)N[C@@H](Cc1c[nH]cn1)C(=O)N[C@@H](CC(C)C)C(=O)N[C@H](C(=O)NCC(=O)N[C@H](C(=O)O)C(C)C)C(C)C)[C@@H](C)CC` [Peptide 1352.02], the “CTL activity of heteroclitic analog versus wild-type peptide” value in series [1] was “strong CTL activity which exceeds that of the wild-type peptide”. In addition, the solubility in series [2] (setting [9]) was over 2000 µg/mL; in [2] (Solubility, DMSO, 2-5 mg/ml) it was over 2000 µg/mL; in [2] (setting [10]), under 5000 µg/mL.
In general, IC50 refers to the concentration at which inhibition is half-maximal. As for aKXVAAWTLKAAa-NH2, in [3], the IC50 was at most 1000 nM and the “Number of HLA-DR molecules bound” value is recorded as 15.
As to `CSCC[C@H](NC(=O)[C@@H](N)CO)C(=O)N1CCC[C@H]1C(=O)N1CCC[C@H]1C(=O)N1CCC[C@H]1C(=O)NCC(=O)N[C@H](C(=O)N[C@@H](CCCNC(=N)N)C(=O)N[C@H](C(=O)O)C(C)C)[C@@H](C)O` [Peptide 1295.03], the “peptide and tumor cell-reactive CTL in vivo” value in [4] was “induce peptide and tumor cell-reactive CTL in vivo”. Further, the solubility in series [2] (setting [9]) was over 2000 µg/mL; in series [2] (Solubility, DMSO, 2-5 mg/ml), over 2000 µg/mL; in series [2] (setting [10]), over 2000 µg/mL. The “Solubility at physiological pH” value in series [2] is “soluble”.
As for `CC(C)C[C@H](NC(=O)[C@H](CO)NC(=O)CNC(=O)[C@H](Cc1ccccc1)NC(=O)[C@@H](NC(=O)[C@@H](N)CCCCN)C(C)C)C(=O)N[C@@H](C)C(=O)N[C@@H](Cc1ccccc1)C(=O)N[C@H](C(=O)O)C(C)C` [Peptide 1334.10], the solubility was over 2000 µg/mL under setting [11]; over 2000 µg/mL (Solubility, DMSO); under 5000 µg/mL under setting [12].
Turning to “p53.149: wild-type version of analog p53.149M2 used in EP-2101 (STPPPGTRV; UniProt P04637 149-157, looked up, fragment) [reference compound]”, the “specific CTL responses using PBMC” value in series [5] is recorded as “induced specific CTL responses”.
On to “TT 830-843: tetanus toxoid (TT) peptide 830-843, a "universal" epitope (QYIKANSKFIGITE; UniProt P04958 830-843, looked up, fragment) [reference compound]”, for which the “Number of HLA-DR molecules bound” value in series [3] was “seven”.
As to `CC(C)C[C@H](NC(=O)[C@@H](N)CC(C)C)C(=O)N[C@H](C(=O)N[C@@H](Cc1ccccc1)C(=O)N[C@@H](Cc1c[nH]c2ccccc12)C(=O)N[C@@H](CC(N)=O)C(=O)N1CCC[C@H]1C(=O)N1CCC[C@H]1C(=O)N[C@H](C(=O)O)C(C)C)[C@@H](C)O` [Peptide 1243.08], the solubility is, setting by setting: under setting [11], over 2000 µg/mL; (Solubility, DMSO) over 2000 µg/mL; under setting [12], over 2000 µg/mL.
For `CC(C)C[C@H](NC(=O)[C@@H](NC(=O)[C@H](Cc1c[nH]c2ccccc12)NC(=O)[C@H](C)NC(=O)[C@H](C)NC(=O)[C@@H](NC(=O)[C@H](CC1CCCCC1)NC(=O)[C@H](CCCCN)NC(=O)[C@@H](C)N)C(C)C)[C@@H](C)O)C(=O)N[C@@H](CCCCN)C(=O)N[C@@H](C)C(=O)N[C@@H](C)C(=O)N[C@H](C)C(=O)O` [Peptide 965.10, aKXVAAWTLKAAa], the IC50 in [3] is at most 1000 nM. Besides, the immunogenicity in humans entry in series [6] (co-emulsified with HPV-derived CTL epitopes) is given as “highly immunogenic in humans”. The safety result in series [6] (patients with recurrent or residual cervical carcinoma) is “Safety was, in fact, demonstrated”. Also, the solubility in [2] was over 2000 µg/mL; in series [2] (pH 9.6) it was under 5000 µg/mL.
With `CC[C@H](C)[C@H](NC(=O)[C@H](CCC(=O)O)NC(=O)[C@H](C)NC(=O)[C@@H](NC(=O)[C@@H](N)CCCCN)C(C)C)C(=O)N[C@H](C(=O)N[C@@H](Cc1c[nH]cn1)C(=O)N[C@@H](Cc1ccccc1)C(=O)N[C@@H](CC(C)C)C(=O)O)C(C)C` [Peptide 1352.03], the “CTL activity of heteroclitic analog versus wild-type peptide” value in series [1] is reported as “strong CTL activity which exceeds that of the wild-type peptide”. Besides, the solubility is over 2000 µg/mL in series [2] (setting [9]); over 2000 µg/mL in series [2] (Solubility, DMSO, 2-5 mg/ml); over 2000 µg/mL in series [2] (setting [10]). For the same compound, in [2], the “Solubility at physiological pH” value is recorded as “soluble”.
For `CC[C@H](C)[C@H](NC(=O)CNC(=O)[C@H](Cc1ccccc1)NC(=O)[C@@H](NC(=O)[C@H](CC(C)C)NC(=O)[C@H](CCC(N)=O)NC(=O)[C@H](CC(C)C)NC(=O)[C@@H](N)Cc1ccc(O)cc1)C(C)C)C(=O)N[C@@H](CCC(=O)O)C(=O)N[C@H](C(=O)O)C(C)C` [Peptide 1090.01], the solubility runs as follows: under setting [11], under 5000 µg/mL; (Solubility, DMSO) over 2000 µg/mL; under setting [12], over 2000 µg/mL. Besides, the “peptide and tumor cell-reactive CTL in vivo” value in series [4] was “induce peptide and tumor cell-reactive CTL in vivo”.
Turning to `CC(C)C[C@H](NC(=O)[C@H](CCC(N)=O)NC(=O)[C@@H](NC(=O)[C@@H]1CCCN1C(=O)C(C)(C)NC(=O)[C@H](CC(C)C)NC(=O)[C@@H](N)CCCCN)C(C)C)C(=O)N[C@@H](Cc1c[nH]c2ccccc12)C(=O)N[C@H](C(=O)O)C(C)C` [Peptide 1323.06, KLBPVQLWV], the solubility in series [2] (setting [9]) is over 2000 µg/mL; in [2] (Solubility, DMSO, 2-5 mg/ml), over 2000 µg/mL; in [2] (setting [10]), over 2000 µg/mL. For the same compound, the “Solubility at physiological pH” value in series [2] is reported as “soluble”.
`CC(C)C[C@H](NC(=O)[C@H](CC(C)C)NC(=O)[C@@H](N)CCCNC(=N)N)C(=O)N[C@@H](CCC(N)=O)C(=O)N[C@@H](CCC(=O)O)C(=O)N[C@H](C(=O)N[C@@H](CCC(=O)O)C(=O)N[C@@H](CC(C)C)C(=O)N[C@H](C(=O)O)C(C)C)[C@@H](C)O` [Peptide 1013.08]: the solubility by setting is: (Solubility, DMSO) over 2000 µg/mL; under setting [12], over 2000 µg/mL. For the same compound, the “specific CTL responses using PBMC” value in series [5] is reported as “induced specific CTL responses”.
Regarding `CC(C)C[C@H](NC(=O)[C@H](CC(N)=O)NC(=O)[C@H](CC(C)C)NC(=O)[C@H](CC(=O)O)NC(=O)[C@H](C)NC(=O)CNC(=O)[C@H](CO)NC(=O)[C@H](CC(C)C)NC(=O)[C@@H](N)Cc1ccc(O)cc1)C(=O)O` [Peptide 1350.01], the “No. A2 Alleles Crossbound” value in series [7] was determined as 3. Further, in [8], the clinical responders result was “five”. Besides, the solubility in series [2] (setting [9]) was over 2000 µg/mL; in series [2] (Solubility, DMSO, 2-5 mg/ml) it was over 2000 µg/mL; in [2] (setting [10]), over 2000 µg/mL. Moreover, in series [2], the “Solubility at physiological pH” value is listed as “soluble”.
